Test results published in patent US20090298868A1, “QUINOLINE COMPOUNDS AS MELANOGENESIS MODIFIERS AND USES THEREOF” (priority 2007, published 2009).
Structures can show the parent of a compound that is named as a salt. Where two headings read alike, the source gives them in different places.

System: cultured murine melanocytes (melan-a)
Experiment: Melanin assay in cultured murine melanocytes (melan-a)
Assay type: cell-based
Conditions: for inhibition at 1 µM / inhibition at 5 µM / IC50: Mus musculus; for inhibition at 1 µM / inhibition at 5 µM: 72 h; for inhibition at 1 µM: read-out: % Inh. @ 1 μM; for inhibition at 5 µM: read-out: % Inh. @ 5 μM
Description: The Spectrum Collection library consisting of 2000 drug compounds or natural products was screened to identify novel pigmentation inhibitors or stimulators in cultured murine melanocytes (melan-a). Compounds were dissolved in dimethylsulfoxide (DMSO) to a final concentration of 10 mM. Screening was performed with cultured melanocytes in 24-well plates followed by melanin assay (see below). A minimum change of 50% in melanin formation was established as significant for a pigmentation inhibitor or stimulator. DMSO was used as a negative control and the widely used depigmenting agent, hydroquinone, was used as a positive control on every plate. Primary screening was performed at a final concentration of 1 μM and potential candidates from the primary screening were reconfirmed in duplicate at final concentrations of 1 and 5 μM.
Melan-a cells were plated at 5×10^4 cells per well in 1 ml of culture media in 24-well plates the day before adding the library compounds. All compounds were added at the indicated final concentrations. Cells were harvested after 72 hours of incubation, and melanin assay was performed.
The hits identified herein were purchased from Sigma (St Louis, Mo.). […] These compounds were dissolved in dimethylsulfoxide (DMSO) to a final concentration of 10 mM, and were tested for their effect on melanin synthesis at the indicated final concentrations.
For the primary and secondary screening, cells were harvested and dissolved in 200 μL of 2N NaOH in 20% DMSO at 70° C. A 180-μl aliquot of the resulting solution was measured for absorbance at 490 nm.
The lysates were centrifuged at 14,000 rpm for 10 minutes at 4° C. BCA protein assay kit (Pierce) was used to measure the protein concentrations of the supernatants, and bovine serum albumin was used as a standard. The remaining pellets were incubated with 100 μl ethanol-ether (1:1) for 10 minutes at room temperature. After removing the ethanol-ether, the pellets were dissolved in 200 μL of 2N NaOH in 20% DMSO at 70° C. A 180-μL aliquot of the resulting solution was measured for absorbance at 490 nm. The melanin contents were normalized to the total amount of protein.

[1] = Melan-a, melanin formation, melan-a cells, 1 μM compound, 72 hours incubation
[2] = Melan-a, melanin formation, melan-a cells, 5 μM compound, 72 hours incubation
[3] = inhibition of melanin synthesis, melan-a cells, read-out: IC50
[4] = melanin formation, melan-a cells, 1 μM compound, 72 hours incubation
[5] = melanin formation, melan-a cells, 5 μM compound, 72 hours incubation

Molecule: C=C[C@H]1C[N@@]2CCC1C[C@H]2[C@H](O)c1ccnc2ccc(OC)cc12 (single isomer, unassigned; (+)) [ID 14, (+)-3-Hydroxybutyric acid, quinine salt]
- % Inh. @ 1 μM (melanin formation, melan-a cells, 1 μM compound, 72 hours incubation, 1 µM): 32.6%
- % Inh. @ 5 μM (melanin formation, melan-a cells, 5 μM compound, 72 hours incubation, 5 µM): 61.3%

Molecule: CCN(CC)Cc1ccc(Nc2ccnc3cc(Cl)ccc23)cc1O [ID 1, Amodiaquine Dihydrochloride]
- inhibition at 1 µM [1]: 21%
- inhibition at 5 µM [2]: 79%
- IC50 [3]: 2600 ± 150 nM

Molecule: CCN(CC)CCCC(C)Nc1ccnc2cc(Cl)ccc12 (centres unmarked) [ID 2, Chloroquine Diphosphate]
- IC50 (Melan-a): 700 ± 180 nM
- inhibition at 1 µM (Melan-a): 62%
- inhibition at 5 µM (Melan-a): 70%

Molecule: COc1cc(NC(C)CCCN)c2ncccc2c1 (centres unmarked) [ID 3, Primaquine Diphosphate]
- IC50 (Melan-a): 6800 ± 370 nM
- inhibition at 1 µM (Melan-a): 30%
- inhibition at 5 µM (Melan-a): 47%

Molecule: CCCCOc1cc(C(=O)NCCN(CC)CC)c2ccccc2n1 [ID 4, Dibucaine Hydrochloride]
- IC50 [3]: 10200 ± 280 nM

Molecule: C=C[C@H]1C[N@]2CC[C@H]1C[C@@H]2[C@@H](OC(=O)OCC)c1ccnc2ccc(OC)cc12 [ID 5, Quinine Ethyl Carbonate]
- IC50 (Melan-a): 5100 ± 120 nM
- inhibition at 1 µM (Melan-a): 15%
- inhibition at 5 µM (Melan-a): 49%

Molecule: C=C[C@H]1C[N@]2CC[C@H]1C[C@@H]2[C@@H](O)c1ccnc2ccc(OC)cc12 [ID 6, Quinidine Gluconate]
- IC50 (Melan-a): 2700 ± 140 nM
- inhibition at 1 µM (Melan-a): 41%
- inhibition at 5 µM (Melan-a): 58%

Molecule: C=C[C@H]1C[N@]2CC[C@H]1C[C@@H]2C(O)c1ccnc2ccc(OC)cc12 (some centres unmarked) [ID 7, Quinine Sulfate]
- IC50 (Melan-a): 1500 ± 190 nM
- inhibition at 1 µM (Melan-a): 31%
- inhibition at 5 µM (Melan-a): 58%

Molecule: CC[C@H]1CN2CCC1C[C@@H]2[C@@H](O)c1ccnc2ccc(OC)cc12 (some centres unmarked) [ID 8, Hydroquinidine]
- inhibition at 1 µM [1]: 30.9%
- inhibition at 5 µM [2]: 52.3%
- IC50 (μM) (inhibition of melanin synthesis, melan-a cells): active

Molecule: C=C[C@H]1C[N@]2CC[C@H]1C[C@H]2[C@H](O)c1ccnc2ccccc12 [ID 9, Cinchonidine]
- inhibition at 1 µM [1]: 25%
- inhibition at 5 µM [2]: 35.7%
- IC50 [3]: 10900 ± 220 nM

Molecule: C=C[C@H]1C[N@]2CC[C@H]1C[C@@H]2[C@H](O)c1ccnc2ccccc12 [ID 10, Cinchonine]
- inhibition at 1 µM [1]: 18%
- inhibition at 5 µM [2]: 30%
- IC50 [3]: > 20000 nM

Molecule: OC(c1cc(C(F)(F)F)nc2c(C(F)(F)F)cccc12)C1CCCCN1 (centres unmarked) [ID 11, Mefloquine]
- inhibition at 1 µM [1]: 10%
- inhibition at 5 µM [2]: 75%
- IC50 [3]: 2000 ± 150 nM

Molecule: C=C[C@H]1CN2CCC1CC2C(O)c1ccnc2ccc(OC)cc12 (some centres unmarked) [ID 12, Quinine]
- inhibition at 1 µM [1]: 42.6%
- inhibition at 5 µM [2]: 70.9%

Molecule: C=C[C@H]1C[N@@]2CCC1C[C@H]2[C@H](O)c1ccnc2ccc(OC)cc12 [ID 13, Quinine Salicylate]
- inhibition at 1 µM [1]: 33%
- inhibition at 5 µM [2]: 60%

Molecule: C=CC1CN2CCC1CC2[C@H](O)c1ccnc2ccc(OC)cc12 (some centres unmarked) [ID 16, Quinine hydrobromide]
- inhibition at 1 µM [1]: 30.1%
- inhibition at 5 µM [2]: 63.9%

Molecule: C=C[C@H]1CN2CCC1CC2[C@@H](O)c1ccnc2ccc(OC)cc12 (some centres unmarked) [ID 17, Quinine hydrochloride dihydrate]
- inhibition at 1 µM [1]: 27.5%
- inhibition at 5 µM [2]: 61.5%

Molecule: CC[C@H]1CN2CCC1CC2C(O)c1ccnc2ccc(OC)cc12 (some centres unmarked) [ID 18, Hydroquinine]
- inhibition at 1 µM [1]: 37.3%
- inhibition at 5 µM [2]: 71.7%

Molecule: CC[C@H]1C[N@@]2CCC1C[C@H]2[C@H](O)c1ccnc2ccc(OC)cc12 [ID 19, Hydroquinine hydrobromide hydrate]
- inhibition at 1 µM [1]: 26.8%
- inhibition at 5 µM [2]: 67.4%

Molecule: CC[C@H]1CN2CCC1CC2[C@@H](O)c1ccnc2ccccc12 (some centres unmarked) [ID 20, Hydrocinchonine]
- inhibition at 1 µM (Melan-a): 24%
- inhibition at 5 µM (Melan-a): 37.3%

Molecule: C=C[C@H]1C[N+]2(Cc3ccccc3)CC[C@H]1C[C@H]2[C@H](O)c1ccnc2ccccc12.[Cl-] [ID 21, N- Benzylcinchonidinium chloride]
- % Inh. @ 1 μM [4]: 9.6%
- % Inh. @ 5 μM [5]: 16.4%

Molecule: CC[C@H]1CN2CCC1CC2[C@@H](OC(=O)c1ccc(Cl)cc1)c1ccnc2ccc(OC)cc12 (some centres unmarked) [ID 22, Hydroquinidine 4-chlorobenzoate]
- inhibition at 1 µM [1]: 10%
- inhibition at 5 µM [2]: 25.5%

Molecule: (−)-3-Hydroxybutyric acid, quinine salt [ID 15]
- % Inh. @ 1 μM [4]: 34.4%
- % Inh. @ 5 μM [5]: 63.9%
